assay: Human HepG2 cell viability assay in 384 well format; format: toxicity, cell-based; design: dose 125 nL, time 70.5 hour; cytotoxicity at 70.5 h: concentration not given beside the values; details: HepG2 cells, read-out: Inhibition

Going from `Cc1nc2c(Nc3cccc(C#N)c3)nc(N)nc2n1C` to `Cn1c(Nc2ccc(F)cc2)c(C#N)c(=O)n(C)c1=O`, the cytotoxicity at 70.5 h falls from 4% to -4.76%.

Going from `COCCn1cc2c(n1)C(CNCc1cccc(OC)c1)OCC2` (stereo unspecified) to `CCn1cc2c(n1)C(COC)CN(Cc1ccoc1)C2` (stereo unspecified), the cytotoxicity at 70.5 h falls from 20.4% to -15.1%.

First: Cc1cc(-c2ccnn2C)nc(C2CCN(S(C)(=O)=O)CC2)n1
Second: CN1CCC(c2nc3ccc(-c4cccc(F)c4)cn3n2)CC1
The cytotoxicity at 70.5 h of the first is higher: -4.75% for the first, -6.5% for the second.

Compared with `CS(=O)(=O)N1CCN(C(=O)CCn2cccn2)CC1`, `CCC(C(=O)N1CCN(S(=O)(=O)N2CCCC2)CC1)n1cccn1` (stereo unspecified) is higher in cytotoxicity at 70.5 h: -6.72% for the first, -3.42% for the second.

Going from `Cc1cc(C)n(CC2CN(Cc3cccc(C(N)=O)c3)CCO2)n1` (stereo unspecified) to `O=C(NCC1(O)COCCN(Cc2cccc(O)c2)C1)c1ccccn1` (stereo unspecified), the cytotoxicity at 70.5 h falls from 6.91% to -5.55%.

Going from `CC(C)N1CCC(Cc2cc(-c3cc(F)ccc3C(=O)O)ncn2)C1` (stereo unspecified) to `CC(C)N1CCC(Cc2cc(-c3cccc(C(=O)O)c3)ncn2)CC1`, the cytotoxicity at 70.5 h falls from -3% to -4.63%.

Compared with `CCC(=O)NCc1cc(Br)ccc1OC(F)F`, `O=C(O)CC(NC(=O)c1ccccc1OC(F)F)c1cccs1` (stereo unspecified) is higher in cytotoxicity at 70.5 h: -6% for the first, 2.5% for the second.

First: Cc1cccn2cc(C(=O)N3CCCN(CC4CC4)C(C(C)C)C3)nc12 (stereo unspecified)
Second: CCc1nc(N)sc1C(=O)N1CCCC(CCc2ccccc2C)C1 (stereo unspecified)
The cytotoxicity at 70.5 h of the first is lower: -8.2% for the first, -6.29% for the second.

First: Cc1cnn(CCCNC(=O)C2CCCCN2Cc2ccncc2)c1 (stereo unspecified)
Second: CC(=O)NCCNC(=O)CN1CCCCC1Cn1cncn1 (stereo unspecified)
The cytotoxicity at 70.5 h of the first is higher: -4.19% for the first, -8.39% for the second.

Compared with `Cc1cc2c(cc1NC(=O)NC(C)(C)C)OCO2`, `Cc1ccc(C(=O)N(C)Cc2ccc3c(c2)OCO3)c(=O)[nH]1` is higher in cytotoxicity at 70.5 h: -7.87% for the first, -4.29% for the second.

Going from `Cc1nn(C)c(N(C)C)c1CNCc1ccccc1Cn1cccn1` to `CN(C)c1ncc(CNC(=O)Nc2ccccc2F)n1C`, the cytotoxicity at 70.5 h rises from -2.08% to -1.14%.

First: CCc1ocnc1C(=O)N1CCC(n2cc(-c3ccsc3)nn2)CC1
Second: CCc1ccc(C(=O)N2CCC(c3nncn3CC)CC2)cc1
The cytotoxicity at 70.5 h of the first is lower: -10.3% for the first, 33.4% for the second.

First: Cc1nc(C)c(C(=O)Nc2cc(N3CCC(C)CC3)ncn2)s1
Second: CC1CCN(c2cc(-n3cnc(C(=O)N4CCSCC4)c3)ncn2)CC1
The cytotoxicity at 70.5 h of the first is higher: 0.183% for the first, -13.5% for the second.

Going from `CC(C)Cc1cc(C(=O)O)nc2[nH]c(=O)[nH]c(=O)c12` to `CC(C)Cc1nc(OCC(=O)O)c(C#N)c2c1CCC2`, the cytotoxicity at 70.5 h rises from -14.3% to 3.53%.

Going from `Cc1cc(C(=O)N2CCOC[C@H](Oc3cccnc3)C2)c(C(F)(F)F)o1` to `Cn1cccc1C(=O)N1CCN2C[C@H](Oc3cccnc3)C[C@H]2C1`, the cytotoxicity at 70.5 h rises from 9.27% to 21.7%.

Compared with `Cc1ccc(-c2nnc(CN3CCCCC3Cn3cncn3)o2)cc1` (stereo unspecified), `c1ccc(-c2noc(CCCN3CCCC3Cn3cncn3)n2)cc1` (stereo unspecified) is lower in cytotoxicity at 70.5 h: -12.6% for the first, -13.4% for the second.

Going from `CCc1nc(CNc2ccc(-c3nc(C4CC4)no3)cn2)no1` to `CCOC1CCN(CCc2nc(-c3cccc(Cl)c3)no2)CC1`, the cytotoxicity at 70.5 h rises from -9.74% to 16.1%.

Going from `CN(C)C(=O)N1Cc2ccccc2C2(CCN(C3CCOCC3)CC2)C1` to `O=C(Cc1ccc(O)cc1)N1CCCC(O)(CN2CCOCC2)CC1` (stereo unspecified), the cytotoxicity at 70.5 h rises from -10.7% to -7.8%.

Compared with `COC[C@@]12CCO[C@@H]1CCN(C(=O)Cc1ccc(C)cc1)C2`, `Cc1ccc(-c2cc(CNC(=O)N3CCSCC3)on2)cc1` is lower in cytotoxicity at 70.5 h: 31.2% for the first, -1.58% for the second.

Going from `Cc1cc(C2CCC2)nc(NCCC23CCCN2CCC3)n1` to `Cc1nc(C2CN(C)CCO2)cc(N2CCC(CO)CC2)n1` (stereo unspecified), the cytotoxicity at 70.5 h rises from -8.73% to -4.15%.

Compared with `COc1ccc(C(=O)C2CCCN(Cc3ccon3)C2)c(OC)c1` (stereo unspecified), `CCN1CCC(Cn2ccc3c(OC)c(OC)ccc3c2=O)C1` (stereo unspecified) is higher in cytotoxicity at 70.5 h: -10.4% for the first, -2.32% for the second.

Compared with `Cc1nc(N2CCN(C(=O)c3ccccn3)CC2)c2c(n1)c(C)nn2C`, `Cc1nc(C(=O)N2CCN(C(C)c3ccccc3F)CC2)cs1` (stereo unspecified) is higher in cytotoxicity at 70.5 h: -8.87% for the first, -1.44% for the second.

Compared with `N#Cc1csc(CNCCOc2ccc(Cl)cn2)c1`, `Nc1cc(-c2cccc3ccnn23)ccn1` is higher in cytotoxicity at 70.5 h: -5.85% for the first, -2.42% for the second.

Compared with `CN(C)CCOCc1ncn2c1CN(c1ncc(F)cn1)CCC2`, `O=C(NCc1cnc2n1CCN(Cc1nccs1)C2)c1ccno1` is higher in cytotoxicity at 70.5 h: -3.65% for the first, -3.38% for the second.

Compared with `CC(C)(C)CN[C@@H]1CO[C@H](CNC(=O)C2CCCC2)[C@H]1O`, `CN(C1CCCC1)C(C)(C)C(=O)NCCNC(N)=O` is higher in cytotoxicity at 70.5 h: -14% for the first, -0.603% for the second.

Going from `CN(Cc1ccc(F)cc1)CC1(O)CCN(C(=O)c2ccccn2)C1` (stereo unspecified) to `CN(CC1(O)CCCN(c2ccccn2)C1)C(=O)CCc1cccs1` (stereo unspecified), the cytotoxicity at 70.5 h rises from -12.9% to -7.41%.

Compared with `CCN1CCN(c2ccc(C(=O)NC(C)c3ccncc3)cc2)CC1` (stereo unspecified), `O=C(NCC(F)F)c1ccc(S(=O)(=O)NCCc2ccncc2)cc1` is lower in cytotoxicity at 70.5 h: 6.23% for the first, -11.1% for the second.

Going from `Cc1n[nH]c(C2CN(CC(=O)NCc3cccs3)CCO2)n1` (stereo unspecified) to `Cc1ncc2c(n1)CN(CC(=O)Nc1cccnc1)CC2`, the cytotoxicity at 70.5 h rises from -86.1% to 17.5%.

Going from `O=C([C@@H]1CCO[C@@H]2CCN(Cc3ccco3)C[C@H]21)N1CCCCO1` to `CS(=O)(=O)N[C@@H]1COC[C@@H]2CN(Cc3ccco3)C[C@@H]21`, the cytotoxicity at 70.5 h falls from -9.33% to -16.3%.

First: O[C@@]1(Cn2cnc(Cl)c2Cl)CCCN2CCCC[C@@H]21
Second: CN(C)c1nccnc1C1CCN(C(=O)C2(C)CCCCN2C)CC1 (stereo unspecified)
The cytotoxicity at 70.5 h of the first is lower: -12.5% for the first, -5.33% for the second.

Compared with `c1ccc(CN2C[C@@H]3OCCN(c4ncccn4)[C@@H]3C2)nc1`, `CCOCC(=O)N1C[C@@H]2CC[C@H](C1)N(Cc1ccccn1)C2=O` is higher in cytotoxicity at 70.5 h: -12.9% for the first, -9.63% for the second.

First: CCc1cc(C(=O)N2CCC3(CCCN(CCOC)C3=O)C2)cs1 (stereo unspecified)
Second: O=C1N(c2cccnc2)CCC12CCCN(Cc1ccco1)C2 (stereo unspecified)
The cytotoxicity at 70.5 h of the first is lower: -9.21% for the first, -3.89% for the second.

Compared with `c1ccc([C@@H]2CN(Cc3cccnc3)C[C@H]2c2cc[nH]n2)cc1`, `COc1ccc(CN2C[C@@H]3COC[C@]3(COc3cccnc3)C2)cc1` is lower in cytotoxicity at 70.5 h: -7.07% for the first, -7.11% for the second.

Compared with `O=C(c1ccnnc1)N1C[C@@H](OCc2cccnc2)[C@H]2OCCC[C@H]21`, `Cc1ncsc1CN1C[C@H](OCC(C)C)[C@H]2OCCC[C@H]21` is lower in cytotoxicity at 70.5 h: 27.3% for the first, -0.162% for the second.

Going from `Cc1nc(CN2CCCC(Nc3ncnc4ccsc34)C2)no1` (stereo unspecified) to `Cc1nc(CN2CCN(C(=O)CCc3cccc(Cl)c3)CC2)no1`, the cytotoxicity at 70.5 h rises from -9.16% to 13.5%.

Going from `Cc1noc2ncc(C(=O)NCC3CCOC3)cc12` (stereo unspecified) to `Cc1cccc(-c2ccc(C(=O)NCC3CCCO3)c(=O)[nH]2)c1` (stereo unspecified), the cytotoxicity at 70.5 h falls from 22% to -10.2%.

Compared with `CC(Cn1cccn1)NC(=O)Cc1csc(C(C)C)n1` (stereo unspecified), `CC(O)(CNC(=O)c1cccnc1-n1cccn1)c1cccs1` (stereo unspecified) is higher in cytotoxicity at 70.5 h: -10.5% for the first, -9.1% for the second.

Going from `O=S(=O)(NCCC(O)c1cccs1)c1ccccc1Cl` (stereo unspecified) to `CN1CCc2cc(C(CNS(=O)(=O)c3cccs3)N3CCCC3)ccc21` (stereo unspecified), the cytotoxicity at 70.5 h rises from -10.8% to 30.7%.

First: CCn1cc(CN2CCN(CC(O)c3cc(C)ccc3C)CC2)c(C)n1 (stereo unspecified)
Second: CCOc1ccc2[nH]c(=O)c(CN3CCC(O)CC3)cc2c1
The cytotoxicity at 70.5 h of the first is higher: -1.03% for the first, -7.88% for the second.

Going from `CC(=O)N(Cc1noc(C)n1)C1CCN(CCOc2ccccc2)C1` (stereo unspecified) to `CC(=O)c1ccc(N2CCC(CO)(CCOc3ccccc3)CC2)nc1`, the cytotoxicity at 70.5 h falls from 1.16% to -11%.

First: CCn1cnnc1CNC(=O)N1CCC(OCc2ccccc2)CC1
Second: CC(CCc1ccccc1)CC(=O)NC1CCN(CC(N)=O)CC1 (stereo unspecified)
The cytotoxicity at 70.5 h of the first is lower: -2.7% for the first, 0.475% for the second.

First: Cc1nn(C)cc1-c1cc(C(=O)NCC(C)(C)c2ccccc2F)n[nH]1
Second: O=C(NCCS(=O)(=O)N1CCc2ccccc21)c1c(O)cc(F)cc1F
The cytotoxicity at 70.5 h of the first is higher: 17.9% for the first, -2.02% for the second.

Going from `O=C(c1ccco1)N1C[C@H]2CCCN(Cc3cccs3)[C@H]2C1` to `O=C(c1ccco1)N1C[C@H]2CN(Cc3cccc(F)c3)C(=O)[C@H]2C1`, the cytotoxicity at 70.5 h falls from 7.1% to -7.79%.

Going from `c1cncc(-c2ccc3c(c2)CCC32CCN(Cc3ccco3)CC2)c1` to `C[C@@H]1CN(Cc2ccco2)CCN1C(=O)Cc1ccccc1F`, the cytotoxicity at 70.5 h falls from -0.391% to -10.6%.

First: Cc1nc2c(c(NCc3ccccc3)n1)CCN(C(=O)C1CCC1)CC2
Second: CNc1ncc(C(=O)N2CCC(c3ccccc3C(=O)O)C2)cn1 (stereo unspecified)
The cytotoxicity at 70.5 h of the first is lower: -6.11% for the first, -5.85% for the second.

Compared with `Cc1ccccc1CN(C)C(=O)c1cc(C2CCCN2C)ccn1` (stereo unspecified), `Cc1cc2[nH]c(CN3CCCCC3c3cccc(F)c3)cc(=O)n2n1` (stereo unspecified) is lower in cytotoxicity at 70.5 h: 10.5% for the first, -5.96% for the second.

Going from `CCN1CCN(C2CCN(CC(=O)NCC(F)(F)F)CC2)C1=O` to `CC(=O)NCC(=O)N1Cc2nccn2CC(CN2CCCC2=O)C1` (stereo unspecified), the cytotoxicity at 70.5 h falls from -6.43% to -7.77%.

Compared with `NCc1n[nH]c(=O)n1-c1cccc(Cl)c1Cl`, `CCCc1cc(C(=O)NCCCC(=O)N2Cc3ccccc3C2)[nH]n1` is lower in cytotoxicity at 70.5 h: -3.71% for the first, -6.02% for the second.

Going from `CN(Cc1ccc(F)c2cccnc12)C1CCS(=O)(=O)C1` (stereo unspecified) to `CN(Cc1ccccc1C(F)(F)F)C(C(N)=O)c1ccccc1` (stereo unspecified), the cytotoxicity at 70.5 h rises from -9.82% to 10.2%.

Going from `CC(C)N(C)Cc1cc(=O)n2c(n1)CN(C(=O)c1ccc[nH]1)CCC2` to `CC(C)c1nn(CC(=O)N2CCCC2)c(=O)c2c1cnn2C(C)(C)C`, the cytotoxicity at 70.5 h rises from 0.329% to 14.2%.

First: CCCN1CCN(S(=O)(=O)c2ncn(C)c2Cl)CC1
Second: O=C(Cc1ccccc1Cl)N1CCN(CC(O)COCCO)CC1 (stereo unspecified)
The cytotoxicity at 70.5 h of the first is lower: -4.77% for the first, 1.21% for the second.

Going from `CCOC[C@H]1CC[C@H]2[C@H](CCN2S(=O)(=O)Cc2ccccc2)O1` to `O=C(NCC1CCCN(C(=O)NCCc2ccccc2)C1)c1ccco1` (stereo unspecified), the cytotoxicity at 70.5 h rises from -1.8% to -0.863%.

Compared with `COCc1noc(CCNc2ncnc3c2CCNCC3)n1`, `c1cnc(-c2nn3c(CN4CCCCC4)nnc3s2)cn1` is higher in cytotoxicity at 70.5 h: -8.6% for the first, -6.5% for the second.

First: Cc1cc(F)ccc1OC1(C(=O)O)CCN(Cc2nccn2C)CC1
Second: COC(=O)c1cnc(C(=O)N(c2ccc(OC)c(F)c2)C(C)C)cn1
The cytotoxicity at 70.5 h of the first is lower: -7.09% for the first, 0.246% for the second.

Compared with `CC(O)CN1CCC(CN(C)Cc2cccc(C#N)c2)CC1` (stereo unspecified), `Cc1ccc(S(=O)(=O)N2C[C@H]3C[C@H](NC(=O)c4ccccn4)[C@H]3C2)cc1` is higher in cytotoxicity at 70.5 h: -2.33% for the first, 56.3% for the second.

Work on `CCN(CC)C(=O)CSc1nc2cc(C)nc-2c(O)n1Cc1ccco1` yielded a cytotoxicity at 70.5 h of -10.9%.

— ChEMBL document CHEMBL3507680, “University of Dundee, Gates Library screen for HepG2 cell viability”
